Assay results published in article PMC12381781, “Structural and functional insights into the selective inhibition of mutant tau aggregation by purpurin and oleocanthal in frontotemporal dementia” (Protein Science : A Publication of the Protein Society, 2025).

Tests used:
[1] = test system: SY5Y-TauP301L-EGFP cells; test: SH-SY5Y seeding assay, Triton X-100 fractionation and western blot; assay type: cell-based
Text: SH‐SY5Y cells were transfected with the AAVS1 CAG rtTA3 TauP301L 2N4R‐EGFP plasmid using ScreenFect‐A‐plus Transfection Reagent (ScreenFect GmbH). AAVS1 CAG rtTA3 TauP301L 2N4R‐EGFP was a gift from Gerold Schmitt‐Ulms (Addgene plasmid #132393; http://n2t.net/addgene:132393; RRID: Addgene_132393). Stable cell lines expressing TauP301L 2N4R‐EGFP were generated via puromycin selection and are referred to as SY5Y‐TauP301L‐EGFP cells. Stable expression of the inducible TauP301L‐EGFP construct was confirmed by fluorescence microscopy and Western blot after doxycycline induction.
SH‐SY5Y and SY5Y‐TauP301L‐EGFP cells were plated at 250,000 cells per well on Geltrex™‐coated culture plates (Gibco, # A1413201) and maintained in complete DMEM. After 24 h, the medium was replaced with CTS™ Neurobasal™ A Medium (Gibco, # A1371201) supplemented with 1× B‐27™ Supplement (ThermoFisher Scientific, #17504044), […] L‐glutamine, and 1% Penicillin–Streptomycin (complete neurobasal medium). Cells were differentiated by treatment with 10 μM all‐trans‐retinoic acid (RA; Sigma‐Aldrich, # R2625) for 72 h. The differentiation was continued in complete neurobasal media supplemented with 10 μM RA and 50 ng/mL recombinant human brain‐derived neurotrophic factor (BDNF) (R&D Systems, #248‐BDB‐250) for another 72 h.
Differentiated SY5Y‐TauP301L‐EGFP cells were pre‐treated with 0.5 μg/mL doxycycline (Sigma‐Aldrich, # D3447) for 24 h to induce the expression of TauP301L‐EGFP. Doxycycline was maintained in the cell culture media throughout the seeding assay. Cells were transduced with tau aggregation reaction products, standardized to 100 nM tau peptide. Transduction mixtures were prepared by combining the tau aggregation reaction products with TurboFect™ Transfection Reagent (Thermo Fisher Scientific Inc.) in Opti‐MEM™. The mixture was briefly vortexed and incubated at room temperature for 15 min before adding to cells. After 72 h, cells were processed for Triton X‐100 fractionation and western blot analysis, as described below.
Triton X‐100 soluble and insoluble fractions were prepared as described previously with minor modifications (Annadurai, Malina, Malohlava, et al., [2022]). SY5Y‐TauP301L‐EGFP cells were harvested in 1× Tris‐buffered saline (TBS) containing 0.05% Triton X‐100, supplemented with protease and phosphatase inhibitors (Roche, #04693116001 and #04906837001). After centrifugation at 1000 × g for 10 min at 4°C, the supernatant was ultracentrifuged at 24,400 × g for 1 h at 4°C to separate Triton X‐100 soluble and insoluble fractions. The insoluble fraction was resuspended in radioimmunoprecipitation assay (RIPA) buffer (Thermo Fisher Scientific, #89901) with protease and phosphatase inhibitors for further analysis.
Equal volumes of soluble and insoluble fractions were resolved by SDS‐PAGE and transferred onto nitrocellulose membranes using the Trans‐Blot Turbo Transfer System (Bio‐Rad). […]
Densitometric analysis of insoluble tau bands was performed by first normalizing total tau signal intensities to GAPDH levels measured in the corresponding soluble fractions. […]

[2] = design: method as in Viswanathan et al., [2020]; settings: in vitro studies; ref Viswanathan et al., [2020]; cited from earlier work
[3] = test system: PHF6; design: method as in Viswanathan et al., [2020]; settings: reduced efficacy at higher peptide:compound ratios such as 5:1; ref Viswanathan et al., [2020]; cited from earlier work
[4] = cells transduced with P301L peptide aggregation products formed with compound vs without, 72 h

Row | Structure (SMILES) | pSer262, T22, or total tau levels, soluble fractions ([1]; P301L peptide aggregation products, across treatments) | T22 or pSer262 tau, soluble and insoluble fractions ([1]; WT peptide aggregation products formed with compound vs control) | oligomeric tau T22 level, insoluble fraction [1, 4] | pSer262 tau level, insoluble fraction [1, 4] | total tau level, insoluble fraction [1, 4] | BBB permeation [2] | PHF6 aggregation inhibition [3]
1 | C/C=C(/C=O)[C@@H](CC=O)CC(=O)OCCc1ccc(O)cc1 [OLC, oleocanthal] | no significant differences | no substantial differences | significantly reduced | significantly reduced | significantly reduced | – | –
2 | O=C1c2ccccc2C(=O)c2c(O)c(O)cc(O)c21 [PUR, purpurin] | – | – | – | – | – | can permeate the BBB | inhibits PHF6 aggregation
